Data taken from patent US12514843B2, “Biofilm disruption” (QBIOTICS PTY LTD, priority 2019, dated 2026).

How the values were obtained:
E. coli IR57 biofilm = assay: Multiple particle tracking (MPT) of 200 nm FluoSpheres in established biofilm; assay type: cell-based, Escherichia coli
Protocol: The effect of three epoxytiglienones (Compounds 1, 4 and 6) on the assembly and permeability of established biofilms of E. coli was assessed using multiple particle tracking (MPT). MPT is a recently described technique, allowing simultaneous tracking of micron-size particles through biofilms using microscopy, from which the diffusion-based parameters of embedded particles within the extracellular polymeric matrix (EPS) of the biofilm can be determined (Cao et al. 2016). MPT measurements also allows for calculation of micro-rheological properties of the biofilm structure following treatment with test compounds.
E. coli biofilms were established and epoxytiglienone and control treatments applied as described in Example 2 above. Twenty-four hours after application of the treatments, the biofilms were stained with SYTO9® and 0.0025% of negatively-charged, carboxylate-modified FluoSpheres® (200 nm) added onto the biofilms and incubated for a further 2 hours. FluoSphere® particle movements within the biofilms were then captured on video using epifluorescence microscopy with a high frame-rate camera (33 ms). Particle trajectories were tracked using ImageJ softwaren (Mosaic) before calculation of three parameters of the 200 nm FluoSphere® particles: (i) ensemble diffusion coefficient (Deff), (ii) ensemble mean squared displacement (MSD) and (iii) creep compliance (a measure of resistance to mechanical deformation derived from the MSD vs lag time). Each treatment was replicated three times.

[1] = tested on: P. aeruginosa PAO1 biofilm; assay: Disruption of established in vitro biofilm, CLSM with COMSTAT image analysis; assay type: cell-based, Pseudomonas aeruginosa; settings: 256 μg/mL
Protocol: Biofilms of E. coli IR57 were grown on 96-well glass-bottomed plates in Mueller-Hinton (MH) broth for 24 h, before 50% of the supernatant was replaced with fresh MH broth with or without the epoxytiglienone compound added to a final concentration of 256 μg/mL (vehicle is ethanol). An ethanol equivalent blank was used as a further control treatment. The plates were then incubated for a further 24 h at 37° C.
Confocal laser scanning microscopy (CLSM) was then used to image the biofilms, following staining with Live/Dead® Baclight stain with phosphate buffered saline (PBS) added to each well before imaging with z-stack CLSM. The resultant images were analysed by COMSTAT software to produce measurements of (i) biofilm biomass volume or bio-volume (μm^3/μm^2) and (ii) DEAD/LIVE bacterial ratio.
The effects of the epoxytiglienones (Compounds 1, 4, 6 and the comparator compound CC-1) on disruption of established in vitro biofilms were further investigated with two other species of Gram-negative bacteria (Pseudomonas aeruginosa PA01 and Acinetobacter baumannii 7789) using methods described in Example 2 above. Cell permeabilisation following Compound 1, 4 and 6 treatment was also determined using SYTOX™ Green Nucleic Acid Stain with untreated control and positive control of 70% isopropanol.

[2] = tested on: chronic biofilm infection; assay: Diabetic murine model of chronic biofilm infection (excisional wound); assay type: in vivo, db/db diabetic mice; settings: 0.3 mg/mL in hydrogel, topical at 24 h, 8 and 15 days; assessed day 21 to 28 post wounding; 7 mice
Source text: The effects of administration of Compound 4 on biofilm infection in vivo was studied in a diabetic murine model of chronic biofilm infection (Zhao et al. 2010). In this study we used methods described by Dhall et al. (2014) in which bacterial biofilm infections develop spontaneously following wound creation.
Briefly, db/db diabetic mice (>6 months old) were housed for 4-5 weeks in non-sterile conditions prior to the creation of wound on the back of each mouse with a 6 mm diameter excisional punch biopsy. Mice were then administered a catalase inhibitor intra-peritoneally (1 g/kg aminotriazole) and a glutathione peroxidase (GPx) inhibitor topically around the edge of the wound site (1 g/kg mercaptosuccinic acid) prior to dressing with Tegaderm. After 24 h, biofilms were evident at the wound site on all mice. The mice where divided into two groups (7 mice per group) and treated with either Compound 4 (0.3 mg/mL in a hydrogel vehicle) or a Control treatment (hydrogel vehicle only). The Tegaderm dressing was the then replaced. Two further administrations of Compound 4 or the Control (vehicle only) were performed at 8 and 15 days. No antibiotics or other antibacterial treatments were applied during the study.
The presence of biofilm and the surface area of the wound were assessed over the course of the study. […]

[3] = tested on: human adult epidermal keratinocytes (HEKa); assay: Microarray gene expression in keratinocytes in vitro; assay type: cell-based; settings: 170 nM
Protocol: (§1) In addition to disrupting the structure of biofilms comprising Gram-negative bacteria, effects of epoxytiglienones on regulation of genes involved in host response to bacterial infection were investigated in microarray studies with human adult epidermal keratinocytes (HEKa) and human adult dermal fibroblasts (HDF) in vitro.
(§2) For these studies, HEKa were cultured in EpiLife® Medium supplemented with Supplement S7 (both from Life Technologies, Carlsbad, CA, USA), while HDF were cultured in Medium 106 supplemented with LSGS (Low Serum Growth Supplement) (both from Life Technologies). Cells where then treated with vehicle or 170 nM Compound 4 for 0, 0.5, 1, 2, 4, 8, 24, 48 and 72 hours. RNA was extracted using a Qiagen RNeasy mini kit and biotinylated using an Illumina TotalPrep RNA Amplification Kit (Ambion, Austin, TX, USA). Labelled RNA was hybridised to HumanHT-12 v4 BeadChip Arrays (Illumina Inc, San Diego, CA, USA) and scanned according to standard Illumina protocols. Data were extracted in GenomeStudio (Illumina) using default analysis settings and no normalisation method. Resulting data were imported into GeneSpring GX (Agilent, Santa Clara, CA, USA. Expression values were normalised using quantile normalisation with default settings.

[4] = tested on: human adult dermal fibroblasts (HDF); assay: Microarray gene expression in fibroblasts in vitro; assay type: cell-based; settings: 170 nM, within 2 to 4 hours
Protocol: as §1, §2

## CCCCCC(=O)OC1C(C)C2(O)C(C3OC3(CO)C(O)C3(O)C(=O)C(C)=CC32)C2C(C)(C)C12OC(=O)CCCCC (stereo not shown) [Compound 4, 12,13-dihexanoyl-6,7-epoxy-4,5,9,12,13,20-hexahydroxy-1-tiglien-3-one]
E. coli IR57 biofilm; 200 nm negatively-charged carboxylate-modified FluoSpheres in E. coli IR57 biofilms, 256 μg/mL, 24 h treatment
  Diffusion coefficient (Deff) ± standard deviation: 0.8449 ± 0.1250 cm^2 · s^−1 × 10^−9
E. coli IR57 biofilm; E. coli IR57 biofilm, 200 nm FluoSpheres, vs untreated and ethanol blank controls
  mean squared displacement (MSD) of FluoSphere particles: substantially higher
E. coli IR57 biofilm; E. coli IR57 biofilm, derived from MSD vs lag time, vs untreated and ethanol blank controls
  biofilm creep compliance: increased
[1]; compared to other treatments
  biofilm distribution (CLSM): significant effect
[1]; compared to other treatments (P<0.05)
  biofilm bio-volume (COMSTAT): significant effect
[1]; vs untreated and ethanol blank controls
  DEAD/LIVE bacterial ratio: no significant differences
[2]
  mice with complete wound healing (complete re-epithelialisation, resolution of inflammation, absence of bacteria within the dermis): 6 of the 7
[3]; from 8 to 72 hours post treatment
  production of host defence peptides (DEFB2, DEFB3, DEFB4, RNASE7): significantly upregulated
[3]; within 2 to 4 hours
  expression of chemokines/cytokines involved in PMNL recruitment (IL8, CXCL1): significant upregulation
[4]
  expression of chemokines/cytokines involved in PMNL recruitment (IL8, CXCL1): significant upregulation
